The molecules below were run on maximal electroshock-induced seizures (MES) (assay: Maximum electroshock seizure test (MES), oral administration to mice). Conditions: 30 minutes before the test, dose protecting 50% of animals.
Type: in vivo
Description: The compounds of the present invention may be tested for in vivo anticonvulsant activity after i.v., p.o. or i.p. injection using a number of anticonvulsant tests in mice, including the maximum electroshock seizure test (MES). Maximum electroshock seizures were induced in male NSA mice weighing between 15-20 g and male Sprague-Dawley rats weighing between 200-225 g by application of current (50 mA, 60 pulses/sec, 0.8 msec pulse width, 1 sec duration, D.C., mice; 99 mA, 125 pulses/sec, 0.8 msec pulse width, 2 sec duration, D.C., rats) using a Ugo Basile ECT device (Model 7801). Mice were restrained by gripping the loose skin on their dorsal surface and saline-coated corneal electrodes were held lightly against the two corneae. Rats were allowed free movement on the bench top and ear-clip electrodes were used. […] A tonic seizure was defined as a hindlimb extension in excess of 90 degrees from the plane of the body. Results were treated in a quantal manner.
The ability of 3-[4-(2,4-difluorophenoxy)phenyl]-1H-pyrazole-1-carboxamide to block maximal electroshock-induced seizures (MES) was determined as described earlier.
3-[4-(2,4-Difluorophenoxy)phenyl]-1H-pyrazole-1-carboxamide was administered p.o. to mice 30 minutes before the test procedure.
The following compounds in Table 1 were tested in MES as described for 3-[4-(2,4-difluorophenoxy)phenyl]-1H-pyrazole-1-carboxamide: […]

Row | Molecule | MES p.o. ED50 [mg/kg]
1 | CN1CCN(C(=O)Cn2nccc2-c2ccc(Oc3ccc(F)cc3)cc2)CC1 [2-{5-[4-(4-Fluorophenoxy)phenyl]-pyrazol-1-yl}-1-(4-methyl)piperazine-1-yl-ethanone] | 10
2 | Cc1nc(-c2ccc(Oc3ccc(F)cc3F)cc2)c[nH]1 [4-[4-(2,4-Difluorophenoxy)phenyl]-2-methyl]-1H-imidazole] | 7.5

Same assay, conditions: Mus musculus, po, 30 minutes before the test, dose protecting 50% of animals

Row | Molecule | ED50 [mg/kg]
3 | CC(=O)N(C)n1nccc1-c1ccc(Oc2ccc(F)cc2)cc1 [2-(N-methylacetamido)-3-[4-(4-fluorophenoxy)phenyl]-2H-pyrazole] | 2.9
4 | CN(C)C(=O)n1ccc(-c2ccc(Oc3ccc(F)cc3)cc2)n1 [3-[4-(4-Fluorophenoxy)phenyl]-1H-pyrazole-1-carboxylic Acid Dimethylamide] | 8.6
5 | NC(=O)n1ccc(-c2ccc(Oc3ccc([N+](=O)[O-])cc3)cc2)n1 [3-[4-(4-Nitrophenoxy)phenyl]-1H-pyrazole-1-carboxamide] | 2
6 | NC(=O)n1ccc(-c2ccc(Oc3ccc(F)cc3F)cc2)n1 [3-[4-(2,4-Difluorophenoxy)phenyl]-1H-pyrazole-1-carboxamide] | 3.5
7 | CS(=O)(=O)NCCn1nccc1-c1ccc(Oc2ccc(F)cc2)cc1 [1-[2-(Methanesulfonylamino)ethyl]-5-[4-(4-fluorophenoxy)phenyl]-1H-pyrazole] | 7.5
8 | NC(=O)n1ccc(-c2ccc(Oc3ccc(F)cc3)c(F)c2)n1 [3-[3-fluoro-4-(4-fluorophenoxy)phenyl]-1H-pyrazole-1-carboxamide] | 4.5
9 | COC(=O)c1ccc(-c2ccc(Oc3ccc(F)cc3)cc2)[nH]1 [Methyl 5-[4-(4-Fluorophenoxy)phenyl]pyrrole-2-carboxylate] | 6
10 | NC(=O)c1ccc(-c2ccc(Oc3ccc(F)cc3)cc2)[nH]1 [5-[4-(4-Fluorophenoxy)phenyl]-pyrrole-2-carboxamide] | 10
11 | Fc1ccc(Oc2ccc(-c3c[nH]cn3)cc2)cc1 [4-[4-(4-Fluorophenoxy)phenyl]-1H-imidazole] | 4.2
12 | Fc1ccc(Oc2ccc(-c3c[nH]cn3)cc2F)cc1 [4-[4-(4-Fluorophenoxy)-3-fluorophenyl]-1H-imidazole] | 3.2
13 | Fc1ccc(Oc2ccc(-c3cc[nH]n3)cc2)cc1 [3-[4-(4-Fluorophenoxy)phenyl]-1H-pyrazole] | 8
14 | NC(=O)n1ccc(-c2ccc(Oc3ccc(F)cc3)cc2)n1 [3-[4-(4-Fluorophenoxy)phenyl]-1H-pyrazole-1-carboxamide] | 7

The molecules below were run against T1, hSkM1 isoform of Na+ channels (Homo sapiens, UniProt P35499) (assay: Electrophysiological Assay 1: whole-cell patch-clamp of Na+ currents in HEK-293 cells expressing hSkM1). Conditions: HEK-293 cells stably expressing hSkM1; concentration that produces half maximal inhibition.
T1 construct: expressed in transfected cells
Type: cell-based
Method: Cell preparation: HEK-293 cells stably expressing the hSkM1 isoform of Na^+ channels (generous gift from Dr. A. L. George, Vanderbilt University Medical School) were cultured using standard techniques, as described previously (Verdoorn, T. A, et al., Neuron 4:919-928 (1990)). For electrophysiology, cells were plated onto 35 mm Petri dishes (pre-coated with poly-D-lysine) at a density of 1:40 on the day of re-seeding from confluent cultures. Our experience has been that cells are suitable for recordings for 2-3 days after plating.
Patch-clamp recordings of voltage-sensitive Na^+ currents: Whole-cell voltage-clamp recordings were made using conventional patch-clamp techniques (Hamill et al., Pfluegers Arch. 391:85-100 (1981)) with an Axopatch 200A amplifier (Axon Instruments, Foster City, Calif.). […] The recording chamber was continuously superfused with the external solution (150 mM NaCl, 5.4 mM KCl, 1.8 mM CaCl2, 1 mM MgCl2, 10 mM HEPES, 10 mM glucose, pH 7.4 (NaOH)) at a speed of about 1 mL/min. Recording pipettes were pulled from thick-walled capillaries (WPI, Sarasota, Fla.) and fire-polished. The pipette resistances ranged from 1 to 3 MΩ when the pipettes were filled with internal solution containing (in mM): 110 CsF, 10 NaCl, 5 MgCl2, 11 EGTA, 10 HEPES, pH adjusted to 7.4 with CsOH. Osmolality was set with a difference of 15-20 mmol/kg between external and internal solutions (lower inside the cell). Drugs and intervening wash-outs were applied through a linear array of flow pipes (Drummond Microcaps, 2 μL, 64-mm length). Compounds are dissolved in dimethylsulfoxide (DMSO) to make a 30 mM stock solution, which was subsequently diluted into the external solution to give final concentrations of 0.1-100 μM. At the highest (1%) concentration, DMSO inhibited the size of Na^+ current only slightly. Currents were recorded at room temperature (22-25° C.), filtered at 5 kHz with an active 8-pole Bessel filter (Frequency Devices, Haverhill, Mass.), digitized at 10-50 μs intervals, and stored using Digidata 1200 analog/digital interface with Pclamp6/Clampex software (Axon Instruments). Series resistance was cancelled typically by ˜75% when necessary. The inhibitory potency of drugs was assessed by measuring reductions in the peak amplitude of Na^+ currents induced by increasing concentrations of compounds tested. Na^+ currents were elicited by stepping membrane voltage from holding potentials over the range −100 mV to −50 mV, to a pulse potential of −10 mV. The test pulse duration was 5-10 msec, repeated at a frequency≦1 Hz. Concentration-inhibition curves were fitted with equation 1:
I/Icontrol=1/(1+([compound]/IC50)) Eq. 1
where Icontrol is the maximal Na^+ current in the absence of antagonist, [compound] is the drug concentration, and IC50 is the concentration of compound that produces half maximal inhibition.
The apparent antagonist dissociation constant (Kd) of this compound for inactivated sodium channels is ˜8 nM.
The Ki (the concentration of a compound that produces half maximal inhibition) value for 3-[4-(4-fluorophenoxy)phenyl]-1H-pyrazole-1-carboxamide and other tested compounds are presented in Table 2.

T1 sequence (P35499 whole entry, canonical isoform): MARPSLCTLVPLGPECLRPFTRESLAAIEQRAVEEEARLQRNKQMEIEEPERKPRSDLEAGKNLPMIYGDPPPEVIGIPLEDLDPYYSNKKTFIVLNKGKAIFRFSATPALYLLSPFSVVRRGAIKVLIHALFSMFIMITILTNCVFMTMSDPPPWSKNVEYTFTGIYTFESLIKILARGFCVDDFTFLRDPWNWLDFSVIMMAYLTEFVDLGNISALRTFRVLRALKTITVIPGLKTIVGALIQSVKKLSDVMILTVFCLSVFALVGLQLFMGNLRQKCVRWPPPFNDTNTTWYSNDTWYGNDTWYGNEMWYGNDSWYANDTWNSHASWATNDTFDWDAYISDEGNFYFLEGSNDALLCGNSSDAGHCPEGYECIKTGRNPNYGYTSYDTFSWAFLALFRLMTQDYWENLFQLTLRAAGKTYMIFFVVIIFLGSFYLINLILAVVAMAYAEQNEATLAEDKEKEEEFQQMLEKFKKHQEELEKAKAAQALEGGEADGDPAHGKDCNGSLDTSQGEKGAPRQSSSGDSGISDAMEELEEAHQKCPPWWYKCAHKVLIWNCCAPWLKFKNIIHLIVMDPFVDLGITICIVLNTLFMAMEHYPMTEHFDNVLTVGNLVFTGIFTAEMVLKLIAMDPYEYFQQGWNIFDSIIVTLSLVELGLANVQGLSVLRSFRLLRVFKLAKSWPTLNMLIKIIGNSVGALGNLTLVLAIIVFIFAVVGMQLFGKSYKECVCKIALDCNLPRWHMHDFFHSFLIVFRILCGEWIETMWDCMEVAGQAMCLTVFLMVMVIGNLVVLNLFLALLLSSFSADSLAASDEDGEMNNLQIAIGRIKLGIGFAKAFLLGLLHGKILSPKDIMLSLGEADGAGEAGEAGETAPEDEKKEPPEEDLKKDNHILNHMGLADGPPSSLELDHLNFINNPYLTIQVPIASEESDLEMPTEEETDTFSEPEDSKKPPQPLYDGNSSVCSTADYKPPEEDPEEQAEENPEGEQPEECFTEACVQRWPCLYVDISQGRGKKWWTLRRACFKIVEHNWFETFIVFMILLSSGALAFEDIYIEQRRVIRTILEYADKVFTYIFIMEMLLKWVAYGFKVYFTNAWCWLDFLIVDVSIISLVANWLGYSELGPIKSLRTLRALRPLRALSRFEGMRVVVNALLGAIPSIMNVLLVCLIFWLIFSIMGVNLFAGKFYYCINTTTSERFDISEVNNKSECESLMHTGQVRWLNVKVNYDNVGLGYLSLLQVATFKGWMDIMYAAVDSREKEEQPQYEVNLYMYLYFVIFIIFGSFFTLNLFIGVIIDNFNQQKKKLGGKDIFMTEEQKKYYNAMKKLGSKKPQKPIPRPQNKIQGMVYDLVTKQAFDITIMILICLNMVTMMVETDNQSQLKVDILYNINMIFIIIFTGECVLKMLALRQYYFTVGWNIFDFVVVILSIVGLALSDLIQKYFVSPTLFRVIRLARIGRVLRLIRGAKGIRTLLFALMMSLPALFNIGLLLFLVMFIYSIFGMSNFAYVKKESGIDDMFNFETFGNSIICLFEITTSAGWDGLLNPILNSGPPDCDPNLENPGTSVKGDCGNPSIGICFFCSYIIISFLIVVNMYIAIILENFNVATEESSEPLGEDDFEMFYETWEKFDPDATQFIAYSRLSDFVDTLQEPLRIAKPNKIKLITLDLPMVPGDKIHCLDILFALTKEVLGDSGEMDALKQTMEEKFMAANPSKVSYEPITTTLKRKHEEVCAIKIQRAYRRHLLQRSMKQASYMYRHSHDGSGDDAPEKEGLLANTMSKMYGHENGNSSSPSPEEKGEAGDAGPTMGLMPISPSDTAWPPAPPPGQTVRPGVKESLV

Row | Ki [nM] | Molecule
15 | 110 | O=[N+]([O-])c1ccc(Oc2ccc(-c3cc[nH]n3)cc2)cc1 [5-[4-(4-nitrophenoxy)phenyl]-1H-pyrazole, 3-[4-(4-nitrophenoxy)phenyl]-1H-pyrazole]
16 | 15 | NC(=O)n1ccc(-c2ccc(Oc3ccccc3)cc2)n1 [3-(4-phenoxyphenyl)-1H-pyrazole-1-carboxamide]
17 | 11 | NC(=O)n1ccc(-c2ccc(Oc3ccc([N+](=O)[O-])cc3)cc2)n1 [3-[4-(4-Nitrophenoxy)phenyl]-1H-pyrazole-1-carboxamide]
18 | 10 | NC(=O)n1ccc(-c2ccc(Oc3ccc(F)cc3F)cc2)n1 [3-[4-(2,4-Difluorophenoxy)phenyl]-1H-pyrazole-1-carboxamide]
19 | 20 | NC(=O)c1nc(-c2ccc(Oc3ccc(F)cc3)c(F)c2)cs1 [4-[4-(4-Fluorophenoxy)-3-fluorophenyl]-thiazole-2-carboxamide]
20 | 9 | 1-[3-[4-(4-Nitrophenoxy)phenyl]-1H-pyrazolyl]ethanone
21 | 8 | NC(=O)n1ccc(-c2ccc(Oc3ccc(F)cc3)cc2)n1 [3-[4-(4-Fluorophenoxy)phenyl]-1H-pyrazole-1-carboxamide]

Same assay, conditions: HEK-293 cells stably expressing hSkM1 sodium channels

Row | inhibition of voltage-gated sodium currents | Molecule
22 | dose-dependent inhibition | NC(=O)n1ccc(-c2ccc(Oc3ccc(F)cc3)cc2)n1 [3-[4-(4-Fluorophenoxy)phenyl]-1H-pyrazole-1-carboxamide]

Same assay, conditions: HEK-293 cells stably expressing hSkM1 sodium channels; read-out: apparent antagonist dissociation constant (Kd) for inactivated sodium channels

Row | Kd [nM] | Molecule
23 | ~8 | NC(=O)n1ccc(-c2ccc(Oc3ccc(F)cc3)cc2)n1 [3-[4-(4-Fluorophenoxy)phenyl]-1H-pyrazole-1-carboxamide]

Same assay, conditions: hSkM1; blocking effect highly sensitive to the holding voltage

Row | potency towards Na+ channels in their resting states | Molecule
24 | weak potency | NC(=O)n1ccc(-c2ccc(Oc3ccc(F)cc3)cc2)n1 [3-[4-(4-Fluorophenoxy)phenyl]-1H-pyrazole-1-carboxamide]

Each molecule was assayed against rBIIA isoform of Na+ channels (Rattus norvegicus, UniProt P04775) (assay: Electrophysiological Assay 2: whole-cell patch-clamp of Na+ currents in HEK-293 cells expressing rBIIA). Conditions: HEK-293 cells stably expressing rBIIA; concentration that produces half maximal inhibition.
Type: cell-based
Method: Cell preparation: HEK-293 (NaIIA-B2) cell line stably expressing the rBIIA isoform of Na^+ channels was established in-house. The cells were cultured using standard techniques, as described previously (Verdoorn, T. A, et al., Neuron 4:919-928 (1990)). For electrophysiology, cells were plated onto poly-D-lysine pre-coated Cellware 35 mm Petri dishes (BIOCOAT, Becton Dickinson) at a density of ˜10^4 cells/dish on the day of re-seeding from confluent cultures. Our experience has been that cells are suitable for recordings for 2-3 days after plating.
Patch-clamp recordings of voltage-sensitive Na^+ currents. Whole-cell voltage-clamp recordings were made using conventional patch-clamp techniques (Hamill et al., Pfluegers Arch. 391:85-100 (1981)) with an Axopatch 200A amplifier (Axon Instruments, Foster City, Calif.). The recording chamber was continuously superfused with the external solution (150 mM NaCl, 5.4 mM KCl, 1.8 mM CaCl2, 1 mM MgCl2, 10 mM HEPES, 10 mM glucose, pH7.4 adjusted with NaOH, osmolality ˜320 mmol/kg) at a speed of about 1 mL/min. Recording pipettes were pulled from the thick-walled capillaries (WPI, Sarasota, Fla.) and fire-polished. The pipette resistances ranged from 1 to 3 MΩ when the pipettes were filled with internal solution containing (in mM): 130 CsF, 20 NaCl, 2 MgCl2, 10 EGTA, 10 HEPES, pH adjusted to 7.4 with CsOH, osmolality ˜310 mmol/kg. Drugs and intervening wash-outs were applied through a linear array of flow pipes (Drummond Microcaps, 2 μL, 64-mm length). Compounds are dissolved in dimethylsulfoxide (DMSO) to make a 30 mM stock solution, which was subsequently diluted into the external solution to give final concentrations of 0.1-100 μM. At the highest (1%) concentration, DMSO inhibited the size of Na^+ current only slightly. Currents were recorded at room temperature (22-25° C.), filtered at 3 kHz with an active 8-pole Bessel filter (Frequency Devices, Haverhill, Mass.), digitized at 10-50 μs intervals, and stored using Digidata 1200 analog/digital interface with Pclamp6/Clampex software (Axon Instruments). Series resistance was cancelled typically by ˜75% when necessary.
The following voltage pulse protocols were used to assess the potency and kinetics of inhibition of the Na^+ channels by the compounds (FIG. 1). [drawing 33]
FIG. 1. Voltage pulse protocols. A. IV-curves. C. Steady-state inactivation. B. Repriming kinetics. D. Time course of binding.
Current-voltage relationship (IV-curve), protocol A, was used to report the voltage at which the maximal inward Na^+ current is achieved. This voltage was used throughout the experiment as testing voltage, Vt. The steady-state inactivation (or, availability) curve, protocol C, was used to get the voltage at which almost complete (≧95%) inactivation of Na^+ channels occurs; it served as voltage for conditioning prepulse, Vc, throughout the experiment. Protocol B reports how fast the channels recover from inactivation at hyperpolarized voltages. This permitted us to set up the duration of the hyperpolarization gap which is used in measurement of the kinetics of binding of compounds to inactivated Na^+ channels (protocol D). Channel repriming under control conditions was fast (≧90% recovery during first 5-10 ms). If a drug substantially retards the repriming process then it becomes possible (protocol D) to accurately measure the kinetics of binding of the inhibitor to inactivated channels as well as the steady-state affinity (k+ and Ki). To estimate k+ values the reduction in peak currents in successive trials with varying pre-pulse duration was plotted as a function of pre-pulse duration and the time constant (τ) measured by mono-exponential fit. A plot of 1/τ as a function of antagonist concentration then allowed calculating of the macroscopic binding rates of the antagonists. To determine Ki values the partial inhibition curves measured by fractional responses in steady-state were fitted with the logistic equation: […]

Row | Ki [nM] | Molecule
25 | 250 | Cl.Fc1ccc(Oc2ccc(-c3c[nH]cn3)cc2F)cc1 [4-[4-(4-Fluorophenoxy)-3-fluorophenyl]-1H-imidazole, hydrochloride salt]
26 | 1100 | Fc1ccc(Oc2ccc(-c3ncc[nH]3)cc2)cc1 [2-[4-(4-Fluorophenoxy)phenyl]-1H-imidazole]
27 | 1310 | NC(=O)c1coc(-c2ccc(Oc3ccc(F)cc3)cc2)n1 [2-[4-(4-Fluorophenoxy)phenyl]oxazole-4-carboxamide]

Same assay, conditions: HEK-293 cells stably expressing the rBIIA isoform of Na+ channels

Row | inhibition of voltage-gated sodium currents | Molecule
28 | dose-dependent inhibition | Cl.Fc1ccc(Oc2ccc(-c3c[nH]cn3)cc2F)cc1 [4-[4-(4-Fluorophenoxy)-3-fluorophenyl]-1H-imidazole, hydrochloride salt]

Same assay, conditions: HEK-293 cells stably expressing the rBIIA isoform of Na+ channels; read-out: apparent antagonist dissociation constant (Kd) for inactivated sodium channels

Row | Kd [nM] | Molecule
29 | 250 | Cl.Fc1ccc(Oc2ccc(-c3c[nH]cn3)cc2F)cc1 [4-[4-(4-Fluorophenoxy)-3-fluorophenyl]-1H-imidazole, hydrochloride salt]

Same assay, conditions: rBIIA; blocking effect highly sensitive to the holding voltage

Row | potency towards Na+ channels in their resting states | Molecule
30 | weak potency | Cl.Fc1ccc(Oc2ccc(-c3c[nH]cn3)cc2F)cc1 [4-[4-(4-Fluorophenoxy)-3-fluorophenyl]-1H-imidazole, hydrochloride salt]

Reference: patent US6737418B2, “Aryl substituted pyrazoles, imidazoles, oxazoles, thiazoles and pyrroles, and the use thereof” (Euro-Celtique S.A., priority 1999, dated 2004)
